From patent US4633014A, “Substituted 3-hydrazinopropionates” (priority 1983, dated 1986)
Where a name gives a salt, the structure may show the parent alone.

What was measured:
white mice = experiment: in vivo
Summary of the method: (§1)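 Acute toxicity in white mice of 20-25 g, with compounds given intraperitoneally as aqueous solutions or Twin-80 suspensions. Animals observed for 10 days.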

in vivo = settings: mouse, in vivo, ip
Summary of the method: as §1

[1] = test system: arrhythmia induced by an intravenous administration of calcium chloride; experiment: Antiarrhythmic activity on a model of arrhythmia induced by intravenous calcium chloride (antagonism to calcium) in mice; type: in vivo; settings: white mice, 20-40 minutes before
Summary of the method: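 Urethane-anaesthetised (1,200 mg/kg i.p.) white mice of both sexes, 18-25 g, with lead II ECG; 2% CaCl2 infused into the tail vein at 0.01 ml per 2 sec. Doses of CaCl2 producing arrhythmia and heart arrest were determined. Test compounds were given i.p. 20-40 min before infusion.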

[2] = currently employed in medicine; cited from earlier work
[3] = white mice, intraperitoneal, relative to quinidine

Structure (SMILES)	Relative toxisity to quinidine (white mice; mouse, in vivo, ip, 14400 min)	LD50 at 240 h (in vivo) [mg/kg]	Dose of calcium chloride causing arrythmia in animals under experiment ([1]; intraperitoneal dose 5 mg/kg)	Dose of calcium chloride causing death in animals under experiment ([1]; intraperitoneal dose 5 mg/kg)	Dose of calcium chloride causing arrythmia in animals under experiment ([1]; intraperitoneal dose 15 mg/kg)	Dose of calcium chloride causing death in animals under experiment ([1]; intraperitoneal dose 15 mg/kg)	Relative toxisity to quinidine (white mice; [3])	Dose of calcium chloride causing arrythmia in animals under experiment ([1]; intraperitoneal dose 10 mg/kg)	Dose of calcium chloride causing death in animals under experiment ([1]; intraperitoneal dose 10 mg/kg)	Dose of calcium chloride causing arrythmia in animals under experiment ([1]; intraperitoneal dose 30 mg/kg)	Dose of calcium chloride causing death in animals under experiment ([1]; intraperitoneal dose 30 mg/kg)	acute toxicity (in words, background) [2]	Dose of calcium chloride causing arrythmia in animals under experiment ([1]; intraperitoneal dose 3 mg/kg)	Dose of calcium chloride causing death in animals under experiment ([1]; intraperitoneal dose 3 mg/kg)
CCCCCCCCCCCCCCCCCC(=O)N(CCC(N)=O)N(C)C [I-50, 3-(2,2-dimethyl-1-octadecanoylhydrazino)propionamide]	> 19,2	> 3000	102,4 mg/kg	118,0 mg/kg	118,6 mg/kg	142,5 mg/kg								
CN(C)N(CCC(N)=O)C(=O)c1ccccc1 [I-51, 3-(2,2-dimethyl-1-benzoylhydrazino)propionamide]	20,1	3150	88,7 mg/kg	105,5 mg/kg	93,5 mg/kg	112,0 mg/kg								
CN(C)N(CCC(N)=O)C(=O)CCO [I-52, 3-(2,2-dimethyl-1-γ-hydroxypropanoylhydrazino)propionamide]	> 19,2	> 3000	93 mg/kg	112,0 mg/kg	97,6 mg/kg	123,6 mg/kg								
COC(=O)N(CCC(N)=O)N(C)C [I-53, 3-(2,2-dimethyl-1methoxycarbonylhydrazino)propionamide]		1880	98,5 mg/kg	132,0 mg/kg	121,0 mg/kg	138,5 mg/kg	12,0							
CN(C)N(CCC#N)C(=O)c1ccccc1 [I-54, 3-(2,2-dimethyl-1-benzoylhydrazino)propionitrile]	6,6	1030	108,3 mg/kg	130,0 mg/kg	102,5 mg/kg	133,0 mg/kg								
CNC(=O)N(C(CC(=O)OC)C(=O)OC)N(C)C (stereo not shown) [I-55]	14,7	2300	88,7 mg/kg	112,5 mg/kg	111,5 mg/kg	135,0 mg/kg								
COC(=O)CC(C(=O)OC)N(C(=O)Nc1ccccc1)N(C)C (stereo not shown) [I-56]	20,5	3200	92,4 mg/kg	108,5 mg/kg	102,0 mg/kg	128,0 mg/kg								
COC(=O)CC(C(=O)OC)N(C(=O)NCCCCCCNC(=O)N(C(CC(=O)OC)C(=O)OC)N(C)C)N(C)C (stereo not shown) [I-57, 3-(2,2-dimethyl-1-/ε-(2-dimethylamino-2-dimethylsuccinato-2'-ylureido-1-yl)hexylcarbamoyl/hydrazino)-2-methoxycarbonylmethylpropionate]	> 19,2	> 3000	103,5 mg/kg	115,0 mg/kg	132,6 mg/kg	150,0 mg/kg								
COC(=O)CC(C(=O)OC)N(C(=O)c1ccccc1)N(C)C (stereo not shown) [I-58, 3-(2,2-dimethyl-1-benzoylhydrazino)-3-methoxycarbonyl-methylpropionate]	> 19,2	> 3000	97,0 mg/kg	112,0 mg/kg	100,5 mg/kg	118,5 mg/kg								
CNC(=S)N(CCC(=O)O)N(C)C [I-59, Sodium salt of 3-(2,2-dimethyl-1-methylthiocarbamoylhydrazino)propionate]	11,5	1800	93,4 mg/kg	108,6 mg/kg	112,5 mg/kg	130,0 mg/kg								
CCCCCCCCOC(=O)CCN(C(=S)Nc1ccccc1)N(C)C [I-60, 3-(2,2-dimethyl-1-phenylthiocarbamoylhydrazino)octylpropionate]	15,5	2420	90,8 mg/kg	132,5 mg/kg	107,5 mg/kg	130,8 mg/kg								
CN(C)N(CCC#N)C(=O)Nc1ccccc1 [I-61, 3-(2,2-dimethyl-1-phenylcarbamoylhydrazino)propionitrile]	8,0	1250	105,0 mg/kg	128,8 mg/kg	102,6 mg/kg	130,0 mg/kg								
CCC(=O)N(CCC#N)N(C)C [I-62, 3-(2,2-dimethyl-1-propionylhydrazino)-propionitrile]		930	96,5 mg/kg	120,5 mg/kg	98,7 mg/kg	118,5 mg/kg	5,9							
CN(C)N(CCC#N)C(=O)c1ccccc1F [I-63, 3-(2,2-dimethyl-1-2'-fluorobenzoylhydrazino)propionitrile]	11,8	1850	101,5 mg/kg	117,3 mg/kg	112,3 mg/kg	128,0 mg/kg								
CN(C)N(CCC(=O)O)C(=O)Nc1ccccc1 [I-64, Potassium salt of 3-(2,2-dimethyl-1-phenylcarbamoylhydrazino)-methylpropionate]	11,2	1750	98 mg/kg	147 mg/kg	141,7 mg/kg	163 mg/kg								
CCN(CC)CCNC(=O)c1ccc(N)cc1 [Procaineamide, procaine amide, reference compound]		290						116,0 mg/kg	120,0 mg/kg	127,0 mg/kg	138,0 mg/kg	high acute toxicity		
C=C[C@H]1C[N@@]2CC[C@H]1C[C@@H]2[C@@H](O)c1ccnc2ccc(OC)cc12 [Quinidine, quinidine, reference compound]		156					1	120,8 mg/kg	133,5 mg/kg			high acute toxicity	126,9 mg/kg	136,0 mg/kg
